From publication PMC5890335 (Journal of immunology (Baltimore, Md. : 1950), 2018)

Assays:
H2-D^d MHC-I molecule = H2-D^d MHC-I molecule (Mus musculus, UniProt P01900); assay: Peptide induction of surface H2-D^d expression on RMAS-D^d cells; assay type: cell-based; conditions: fluorescence index, ANOVA, compared with s.p.VV10, Fig 4c
[1] = target: H2-D^d MHC-I molecule on RMAS-D^d cells (mouse); assay: flow cytometry on cells
Sequence of H2-D^d MHC-I molecule on RMAS-D^d cells (mouse) (P01900 25-365): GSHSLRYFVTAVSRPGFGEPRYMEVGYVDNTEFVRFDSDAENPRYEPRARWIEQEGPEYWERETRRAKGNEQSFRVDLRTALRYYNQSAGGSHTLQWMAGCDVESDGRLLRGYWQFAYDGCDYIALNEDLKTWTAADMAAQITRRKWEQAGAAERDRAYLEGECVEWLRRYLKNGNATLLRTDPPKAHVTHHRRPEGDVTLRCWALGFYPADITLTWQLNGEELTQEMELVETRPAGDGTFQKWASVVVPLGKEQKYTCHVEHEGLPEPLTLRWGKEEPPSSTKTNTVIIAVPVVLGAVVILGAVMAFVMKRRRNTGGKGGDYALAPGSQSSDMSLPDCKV

Sequence of H2-D^d MHC-I molecule (P01900 whole entry, looked up): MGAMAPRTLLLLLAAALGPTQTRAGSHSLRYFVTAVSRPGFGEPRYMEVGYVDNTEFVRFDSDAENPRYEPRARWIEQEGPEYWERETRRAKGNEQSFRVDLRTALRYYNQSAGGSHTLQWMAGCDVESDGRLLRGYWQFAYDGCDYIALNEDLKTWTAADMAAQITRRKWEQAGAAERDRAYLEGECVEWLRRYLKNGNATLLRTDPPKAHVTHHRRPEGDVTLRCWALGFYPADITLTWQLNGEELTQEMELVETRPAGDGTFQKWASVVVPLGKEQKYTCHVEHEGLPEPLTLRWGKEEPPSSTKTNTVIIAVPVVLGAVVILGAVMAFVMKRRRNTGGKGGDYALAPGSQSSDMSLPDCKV

Row | Molecule | comparison of H2-D^d binding titration curves of the 9-mer peptides (H2-D^d MHC-I molecule) | FI0.5 (peptide concentration giving a 50% increase in H2-D^d surface expression) [1] [µg/mL]
1 | IGPGRAFYV [s.p.V9] | do not differ from each other | –
2 | IGPGRAFYT [s.p.T9] | do not differ from each other | –
3 | s.p.TT10 (…), minimal V3 epitope of HIV-1MN gp120, gp120 314-323 (peptide) | – | 1
4 | IGPGRAFYVV [s.p.VV10 (…)] | – | 1
